The nature of series [1]: Long-term toxicity evaluation and necropsy, non-tumor-bearing mice. It counts as in vivo, CD1 mice. As to the method: Urinalysis evaluating specific gravity and urine protein levels via dipstick (Chemstrip Test Strips, Roche Diagnostics) was performed monthly for each animal. Terminal clinical and anatomic pathology was done in the Johns Hopkins Phenotyping and Comparative Pathology Core. Assessments included serum metabolic panel, blood counts, and complete necropsy with histopathology of more than 30 tissues as described previously.

A short description of series [2]: Long-term biodistribution in normal tissues of non-tumor-bearing mice. It counts as in vivo, CD1 mice. The note with it: 18.5 MBq iv, mean. As to the method:
Comparison between tumor and kidney uptake was performed using Student's t-test.

Details of series [3]: method as in PMID 27230930. The note with it: cited from earlier work.
The test system of series [4] is PSMA-positive micrometastatic PC model. More on the design: method as in PMID 27230930. The following applies: 740 kBq; cited from earlier work.
The next series relates to metastatic PC. Further details: method as in PMID 23863050. The note with it: cited from earlier work.
Series [5] relates to epidermal growth factor receptor-positive metastatic breast cancer. More on the design: method as in PMID 24753984. The following applies: activities up to 2.3 GBq; cited from earlier work.
Where [6] appears, read: any activity up to 111 MBq, 12 months.

“Also recorded” adds a separate entry of the source. Where two headings read alike, the source gives them in different places.

`O=C(O)CCC(NC(=O)NC(CCCCNC(=O)c1ccc([125I])cc1)C(=O)O)C(=O)O` (stereo not shown) [^125I-DCIBzL]: in series [1] (111 MBq, necropsy at 12 months), the “Average blood urea nitrogen” value stood at 14.5 mg/dL and the Average creatinine is given as 0.4 mg/dL. Moreover, the “Maximum tolerated dose (MTD)” value in series [1] (CD1 mice, 12 months) is reported as “at least 111 MBq”. Also, in series [1] (activities up to 111 MBq iv, 12 months), the “Maximum tolerated dose (MTD)” value is reported as “not reached”. Besides, in series [1] (setting [6]), the Death from toxicity result is recorded as “No mouse treated with any activity of ^125I-DCIBzL died from toxicity” and the “Long-term toxicity (weight, urinalysis, necropsy)” value was “no appreciable toxicity; also recorded: no acute or long-term toxicity was noted; also recorded: no long-term toxicities were noted”. In series [1] (highest activities, 12 months), the Renal histopathology result is given as “mild renal tubule epithelial hypertrophic changes with occasional atypia”. Moreover, in series [1] (treated mice, 12 months), the “Average hemoglobin at necropsy” value is given as 12.8 g/dL and the “Long-term hematologic toxicity (histopathology of spleen, bone marrow, lymph nodes)” value is “not noted”. For the same molecule, in series [1] (up to 111 MBq, 12 months), the “Late nephropathy on necropsy” value was “no evidence of late nephropathy”. Moreover, the “Changes in body weight or urine protein levels” value in series [1] (up to 111 MBq, 12 months, vs untreated) is given as “no consistent changes”. For the same molecule, in series [2] (2 weeks), the “% Injected Dose/gram Bladder” value came to 0.15 % Injected Dose/gram, the “% Injected Dose/gram Blood” value is 0.01 % Injected Dose/gram, the “% Injected Dose/gram Heart” value is listed as 0.05 % Injected Dose/gram and the “% Injected Dose/gram Large intestine” value is listed as 0.05 % Injected Dose/gram. Further, in series [2] (2 weeks), the “% Injected Dose/gram Liver” value is listed as 0.05 % Injected Dose/gram, the “% Injected Dose/gram Lung” value was 0.31 % Injected Dose/gram, the “% Injected Dose/gram Muscle” value is 0.05 % Injected Dose/gram and the “% Injected Dose/gram Pancreas” value stood at 0.07 % Injected Dose/gram. Besides, in series [2] (2 weeks), the “% Injected Dose/gram Salivary gland” value is listed as 0.13 % Injected Dose/gram, the “% Injected Dose/gram Small intestine” value came to 0.03 % Injected Dose/gram, the “% Injected Dose/gram Spleen” value is on record as 0.77 % Injected Dose/gram and the “% Injected Dose/gram Stomach” value is recorded as 0.05 % Injected Dose/gram. In series [2] (4 weeks), the “% Injected Dose/gram Bladder” value was found to be 0.06 % Injected Dose/gram, the “% Injected Dose/gram Blood” value was found to be 0.00 % Injected Dose/gram, the “% Injected Dose/gram Heart” value came to 0.02 % Injected Dose/gram and the “% Injected Dose/gram Large intestine” value is 0.02 % Injected Dose/gram. Moreover, in series [2] (4 weeks), the “% Injected Dose/gram Liver” value is given as 0.02 % Injected Dose/gram, the “% Injected Dose/gram Lung” value turned out to be 0.12 % Injected Dose/gram, the “% Injected Dose/gram Muscle” value amounted to 0.03 % Injected Dose/gram and the “% Injected Dose/gram Pancreas” value was 0.03 % Injected Dose/gram. For the same molecule, in series [2] (4 weeks), the “% Injected Dose/gram Salivary gland” value is reported as 0.05 % Injected Dose/gram, the “% Injected Dose/gram Small intestine” value was 0.02 % Injected Dose/gram, the “% Injected Dose/gram Spleen” value stood at 0.36 % Injected Dose/gram and the “% Injected Dose/gram Stomach” value came out at 0.02 % Injected Dose/gram. Besides, in series [2] (6 weeks), the “% Injected Dose/gram Bladder” value came out at 0.04 % Injected Dose/gram, the “% Injected Dose/gram Blood” value came out at 0.00 % Injected Dose/gram, the “% Injected Dose/gram Heart” value came out at 0.01 % Injected Dose/gram and the “% Injected Dose/gram Large intestine” value worked out at 0.02 % Injected Dose/gram. In series [2] (6 weeks), the “% Injected Dose/gram Liver” value was 0.01 % Injected Dose/gram, the “% Injected Dose/gram Lung” value was found to be 0.05 % Injected Dose/gram, the “% Injected Dose/gram Muscle” value worked out at 0.02 % Injected Dose/gram and the “% Injected Dose/gram Pancreas” value was 0.02 % Injected Dose/gram. Further, in series [2] (6 weeks), the “% Injected Dose/gram Salivary gland” value is recorded as 0.02 % Injected Dose/gram, the “% Injected Dose/gram Small intestine” value is 0.01 % Injected Dose/gram, the “% Injected Dose/gram Spleen” value is recorded as 0.10 % Injected Dose/gram and the “% Injected Dose/gram Stomach” value is on record as 0.01 % Injected Dose/gram. In series [2] (8 weeks), the “% Injected Dose/gram Bladder” value was 0.01 % Injected Dose/gram, the “% Injected Dose/gram Blood” value came to 0.00 % Injected Dose/gram, the “% Injected Dose/gram Heart” value turned out to be 0.00 % Injected Dose/gram and the “% Injected Dose/gram Large intestine” value is 0.01 % Injected Dose/gram. Moreover, in series [2] (8 weeks), the “% Injected Dose/gram Liver” value is on record as 0.00 % Injected Dose/gram, the “% Injected Dose/gram Lung” value stood at 0.03 % Injected Dose/gram, the “% Injected Dose/gram Muscle” value is recorded as 0.01 % Injected Dose/gram and the “% Injected Dose/gram Pancreas” value came to 0.01 % Injected Dose/gram. In series [2] (8 weeks), the “% Injected Dose/gram Salivary gland” value turned out to be 0.01 % Injected Dose/gram, the “% Injected Dose/gram Small intestine” value was found to be 0.01 % Injected Dose/gram, the “% Injected Dose/gram Spleen” value was 0.05 % Injected Dose/gram and the “% Injected Dose/gram Stomach” value is recorded as 0.00 % Injected Dose/gram. In addition, in series [2] (10 weeks), the “% Injected Dose/gram Bladder” value came to 0.00 % Injected Dose/gram, the “% Injected Dose/gram Blood” value came to 0.00 % Injected Dose/gram, the “% Injected Dose/gram Heart” value turned out to be 0.00 % Injected Dose/gram and the “% Injected Dose/gram Large intestine” value was 0.00 % Injected Dose/gram. Also, in series [2] (10 weeks), the “% Injected Dose/gram Liver” value is 0.00 % Injected Dose/gram, the “% Injected Dose/gram Lung” value came out at 0.00 % Injected Dose/gram, the “% Injected Dose/gram Muscle” value is 0.00 % Injected Dose/gram and the “% Injected Dose/gram Pancreas” value is 0.00 % Injected Dose/gram. Besides, in series [2] (10 weeks), the “% Injected Dose/gram Salivary gland” value came to 0.00 % Injected Dose/gram, the “% Injected Dose/gram Small intestine” value came to 0.00 % Injected Dose/gram, the “% Injected Dose/gram Spleen” value worked out at 0.01 % Injected Dose/gram and the “% Injected Dose/gram Stomach” value is reported as 0.00 % Injected Dose/gram. Moreover, in series [2] (12 weeks), the “% Injected Dose/gram Bladder” value stood at 0.00 % Injected Dose/gram, the “% Injected Dose/gram Blood” value worked out at 0.00 % Injected Dose/gram, the “% Injected Dose/gram Heart” value worked out at 0.00 % Injected Dose/gram and the “% Injected Dose/gram Large intestine” value came to 0.00 % Injected Dose/gram. Further, in series [2] (12 weeks), the “% Injected Dose/gram Liver” value was determined as 0.00 % Injected Dose/gram, the “% Injected Dose/gram Lung” value was determined as 0.01 % Injected Dose/gram, the “% Injected Dose/gram Muscle” value came to 0.00 % Injected Dose/gram and the “% Injected Dose/gram Pancreas” value was 0.00 % Injected Dose/gram. Further, in series [2] (12 weeks), the “% Injected Dose/gram Salivary gland” value came out at 0.00 % Injected Dose/gram, the “% Injected Dose/gram Small intestine” value stood at 0.00 % Injected Dose/gram, the “% Injected Dose/gram Spleen” value came out at 0.01 % Injected Dose/gram and the “% Injected Dose/gram Stomach” value is 0.00 % Injected Dose/gram.

For the molecule `O=C(O)CC[C@H](NC(=O)NC(CCCCNC(=O)c1ccc([211At])cc1)C(=O)O)C(=O)O` (stereo partly drawn) [^211At-PSMA-6, (2S)-2-(3-(1-carboxy-5-(4-^211At-astatobenzamido)pentyl)ureido)-pentanedioic acid], the “Maximum tolerated dose (MTD)” value in series [3] (CD1 mice) is 37 kBq. In addition, the Dose-limiting toxicity entry in series [3] is “dose-limiting late nephrotoxicity”. The “Increase in median survival” value in series [4] is reported as about 2 fold.

For `[Cl][223Ra][Cl]` [^223RaCl2], the Prolongation of survival in the series on metastatic PC is on record as 3 months.

For “^111In-DTPA-hEGF: Auger RPT evaluated in a Phase I trial of epidermal growth factor receptor-positive metastatic breast cancer”, in series [5], the MTD result is listed as “not reached”.

The values are drawn from PMC7053212, “Auger radiopharmaceutical therapy targeting prostate-specific membrane antigen in a micrometastatic model of prostate cancer” (Theranostics, 2020).
